Test results reported in article PMC9972471, “Calamene-Type Sesqui-, Mero-, and Bis-sesquiterpenoids from Cultures of Heimiomyces sp., a Basidiomycete Collected in Africa” (Journal of Natural Products, 2023).
Values after ≈ are worked out from the molar mass of the structure shown. Read-outs that look alike come from different tables or passages of the source.

Tests used:
Type in all cases: cell-based
[1] = tested on: Rhodotorula glutinis DSM 10134; experiment: Serial dilution assay, MIC; details: for MIC: DSM10134, - = no inhibition was observed, read-out: Minimum inhibitory concentration (MIC)
Procedure: (§1) Figure S3. ECD spectra of 7 .
(§2) Eval uation of anti mi cr obi al acti vity.
(§3) To assess the antimicrobial activity of each compound, a serial dilution assay to ascertain their minimum inhibitory concentration (MIC) against sever al yeast, fungal and bacterial strains was c arried out in 96-well micr otiter plates, as previously described by Har ms et al.
(§4) Table S1. Minimum inhibitory concentration (MIC in µg/mL) for yeast, bacterial and fungal strains.
(§5) The serial dilution assay was performed using 1 mg/mL stock solutions of 1 -8, 13, 15 and 16. As positive control the antimicrobials [ O] Oxytetracyclin , [ G] Gentamycin and [ K] Kanamycin wer e used for bacteria and [N] Nystatin was used for filamentous fungi and yeast.
(§6) (DSM 70572), Pichia anomala (DSM 6766), Candida albicans (DSM 1665), Escherichia coli (DSM 1116), Mycobacterium smegmatis (ATCC 700084), Pseudomonas aeruginosa (DSM PA14), Chromobacterium violaceum (DSM 30191) and Acinetobacter baumannii (DSM 30008).
(§7) (1 picture or pasted object on this page, not shown here)

Mucor hiemalis DSM 2656 = experiment: Serial dilution assay, MIC
Procedure: as §1, §2, §3, §4, §5, §6, §7

Bacillus subtilis DSM 10 = experiment: Serial dilution assay, MIC; details: for MIC: DSM10, - = no inhibition was observed, read-out: Minimum inhibitory concentration (MIC)
Procedure: as §1, §2, §3, §4, §5, §6, §7

[2] = tested on: Staphylococcus aureus DSM 346; experiment: Serial dilution assay, MIC; details: for MIC: Staphylococcus aureus, DSM346, read-out: Minimum inhibitory concentration (MIC)
Procedure: as §1, §2, §3, §4, §5, §6, §7

[3] = tested on: cervix carcinoma cell line KB3.1; experiment: In vitro cytotoxicity assay; details: Homo sapiens, KB 3-1, - = no activity, read-out: Half inhibitory concentration (IC50)
Procedure: (§8) Eval uation of cytot ox icity.
(§9) Assessment of in vitro cytotoxicity was performed in 96-well plates, as previously published by Harms et al against the
(§10) mouse fibroblast cell line L929 and the cervix car cinoma cell line KB3.1. […]
(§11) Table S2. Half inhibitory concentration (IC50 i n µM ) .
(§12) The cytotoxicity assay was performed using 1 mg/mL stock solutions of 1 -8 , 13 , 15 and 16. Epo thilon B was tested as positive

[4] = tested on: mouse fibroblast cell line L929; experiment: In vitro cytotoxicity assay; details: - = no activity, read-out: Half inhibitory concentration (IC50)
Procedure: as §8, §9, §10, §11, §12

[5] = tested on: human prostate carcinoma cell line PC-3; experiment: Extended cytotoxicity assay; details: read-out: Half inhibitory concentration (IC50)
Procedure: as §8
(§13) Assessment of in vitro cytotoxicity was performed in 96-well plates, as previously published by Harms et al against the mouse fibroblast cell line L929 and the cervix car cinoma cell line KB3.1. Heimiomycin D (5 ) was additionally tested against human breast carcinoma cell line MCF-7, human lung carcinoma cell line A549, human ovarian carcinoma cell line SKOV -3, human prostate carcinoma cell line P C-3 and human epidermoid carcinoma cell line A431.
as §11
(§14) The cytotoxicity assay was performed using 1 mg/mL stock solutions of 1 -8 , 13 , 15 and 16. Epo thilon B was tested as positive […]
(§15) IC50 in µM; - no activity
(§16) Table S3. Half inhibitory concentration (IC50 in µM) of 5 .
(§17) The extended cytotoxicity assay against further cell lines was performed using a 1 mg/mL stock solution of 5 . Epothilon B was tested as positive control.
(§18) Hei mio my cin D (5) Epo B

[6] = tested on: human lung carcinoma cell line A549; experiment: Extended cytotoxicity assay; details: read-out: Half inhibitory concentration (IC50)
Procedure: as §8, §13, §11, §14, §15, §16, §17, §18

[7] = tested on: human ovarian carcinoma cell line SKOV-3; experiment: Extended cytotoxicity assay; details: SK-OV-3, read-out: Half inhibitory concentration (IC50)
Procedure: as §8, §13
(§19) Table S2. Half inhibitory concentration (IC50 i n µM ) . […]
as §16, §17, §18

[8] = tested on: human breast carcinoma cell line MCF-7; experiment: Extended cytotoxicity assay; details: MCF7, read-out: Half inhibitory concentration (IC50)
Procedure: as §8, §13, §19, §16, §17, §18

[9] = tested on: human epidermoid carcinoma cell line A431; experiment: Extended cytotoxicity assay; details: read-out: Half inhibitory concentration (IC50)
Procedure: as §8, §13, §19, §16, §17, §18

MIC (Bacillus subtilis DSM 10)	MIC [2]	Structure (SMILES)	IC50 [3]	IC50 [4]	also measured
16.6 µg/mL (≈ 26.9 µM)	33.3 µg/mL (≈ 54 µM)	CC(C)[C@H]1CC[C@H](C)c2c(O)c(O)c(C=O)c(C3=C(O)C(=O)C4=C(OCc5c(O)c(O)c6c(c54)[C@@H](C(C)C)CC[C@@H]6C)C3=O)c21 [compound 2, Bis-heimiomycin B]	30.8 µM		
33.3 µg/mL (≈ 52.6 µM)		CC(C)[C@H]1CC[C@H](C)c2c(O)c(O)c(C=O)c(C3=C(O)C(=O)C(c4c(C=O)c(O)c(O)c5c4[C@@H](C(C)C)CC[C@@H]5C)=C(O)C3=O)c21 [compound 1, Bis-heimiomycin A]			MIC [1]: 66.6 µg/mL (≈ 105 µM)
16.6 µg/mL (≈ 43 µM)	66.6 µg/mL (≈ 172 µM)	CC(C)[C@H]1CC[C@H](C)c2c(O)c(O)c(C=O)c(C3=C(O)C(=O)C=C(O)C3=O)c21 [compound 6, Heimiomycin E]		57 µM	
33.3 µg/mL (≈ 83.2 µM)	33.3 µg/mL (≈ 83.2 µM)	CC1=C(O)C(=O)C(c2c(C=O)c(O)c(O)c3c2[C@@H](C(C)C)CC[C@@H]3C)=C(O)C1=O [compound 5, Heimiomycin D]	6.3 µM	45 µM	IC50 [5]: 30 µM; IC50 [6]: 14.3 µM; IC50 [7]: 3 µM; IC50 [8]: 2.5 µM; IC50 ([9]; A431): 4.3 µM; IC50 ([9]; Homo sapiens, A-431, A431): 4.25 µM

Second part, the compound before the results:

Structure (SMILES)	MIC (Bacillus subtilis DSM 10)	MIC [2]	IC50 [3]	IC50 [4]	also measured
C[C@@H]1[C@H](O)[C@@H](C)/C=C/C=C/CC/C=C/C=C/C=C/C=C/C(O[C@H]2O[C@H](C)[C@@H](O)[C@H](N)[C@@H]2O)CC2O[C@](O)(CC(O)C(O)CCC(O)CC(O)CC(O)CC(=O)O[C@H]1C)CC(O)C2C(=O)O (stereo partly drawn) [Nystatin, reference compound]					Minimum inhibitory concentration (MIC) ([1]; - = no inhibition was observed): 4.2 µg/mL (≈ 4.54 µM); Minimum inhibitory concentration (MIC) (Mucor hiemalis DSM 2656; - = no inhibition was observed): 8.3 µg/mL (≈ 8.96 µM)
O=c1cc(O)cc(C2c3c(cc(/C=C/c4ccc(O)c(O)c4)oc3=O)OC2c2ccc(O)c(O)c2)o1 (stereo not drawn) [compound 16, hypholomin B]	33.3 µg/mL (≈ 67.9 µM)				
CC(C)[C@H]1CC[C@H](C)c2c(O)c(O)c3c(c21)C1=C(OC3)C(=O)C2=C(OCc3c(O)c(O)c4c(c32)[C@@H](C(C)C)CC[C@@H]4C)C1=O [compound 4, Bis-heimiomycin D]			35 µM		
CC(C)[C@H]1CC[C@H](C)C2=C1C=C(C(=O)O)CC2 [compound 7, Heimiocalamene A]	66.6 µg/mL (≈ 284 µM)	66.6 µg/mL (≈ 284 µM)	85.5 µM		MIC [1]: 66.6 µg/mL (≈ 284 µM); MIC (Mucor hiemalis DSM 2656; DSM2656, - = no inhibition was observed, read-out: Minimum inhibitory concentration (MIC)): 33.3 µg/mL (≈ 142 µM)
CC(C)[C@H]1CC[C@H](C)c2c(O)c(O)c(CO)c(C3=C(O)C(=O)C4=C(OCc5c(O)c(O)c6c(c54)[C@@H](C(C)C)CC[C@@H]6C)C3=O)c21 [compound 3, Bis-heimiomycin C]	16.6 µg/mL (≈ 26.8 µM)	33.3 µg/mL (≈ 53.8 µM)	27.5 µM	32.4 µM	
O=c1cc(O)cc(/C=C/c2ccc(O)c(O)c2)o1 [compound 15, hispidin]			93.5 µM	85.4 µM	
Cc1c(O)c(O)c(C(C)C)c2c1CCC(C(=O)O)=C2 [compound 8, Heimiocalamene B]	66.6 µg/mL (≈ 254 µM)		31.3 µM	37.4 µM	MIC [1]: 66.6 µg/mL (≈ 254 µM)
CN(C)[C@@H]1C(=O)C(C(N)=O)=C(O)[C@@]2(O)C(=O)C3=C(O)c4c(O)cccc4[C@@](C)(O)[C@H]3[C@H](O)[C@@H]12 [Oxytetracyclin, reference compound]					Minimum inhibitory concentration (MIC) (Bacillus subtilis DSM 10; - = no inhibition was observed): 8.3 µg/mL (≈ 18 µM); Minimum inhibitory concentration (MIC) ([2]; Staphylococcus aureus DSM 346, - = no inhibition was observed): 0.83 µg/mL (≈ 1.8 µM)
